Here are results for 27 compounds from patent publication US20110224231A1, “Novel Lactams as Beta Secretase Inhibitors” (Pfizer Inc., priority 2008, published 2011).

Molecules are shown by their SMILES. Where a name gives a salt, the structure may show the parent alone.

This assay has as its target T1, soluble human BACE (Homo sapiens, UniProt P56817).
T1 construct: cells secreting human recombinant soluble BACE; made in house; conditioned medium
The experiment in a line: BACE activity Cell Free Assay (ELISA of cleaved synthetic APP substrate). Type of assay: biochemical.

T1 sequence (P56817 46-457 limits assumed): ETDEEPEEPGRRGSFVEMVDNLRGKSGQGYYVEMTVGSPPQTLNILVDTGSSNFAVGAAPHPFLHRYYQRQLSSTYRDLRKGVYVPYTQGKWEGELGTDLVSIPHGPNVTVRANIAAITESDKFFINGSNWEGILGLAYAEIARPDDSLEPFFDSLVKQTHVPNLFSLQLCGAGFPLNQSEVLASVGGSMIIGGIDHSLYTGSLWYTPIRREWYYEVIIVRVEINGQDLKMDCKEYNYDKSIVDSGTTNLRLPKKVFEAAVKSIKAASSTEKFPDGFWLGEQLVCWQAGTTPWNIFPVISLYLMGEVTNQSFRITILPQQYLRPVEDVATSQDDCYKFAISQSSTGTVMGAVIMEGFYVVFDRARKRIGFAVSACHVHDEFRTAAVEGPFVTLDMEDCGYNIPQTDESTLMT

Regarding `Cc1cccc(N2C(=O)C=C[C@]23CCN(Cc2ccc(O)c(-c4sccc4C)c2)[C@@H](C)C3)n1` [#136, (5R,7S)-8-[4-hydroxy-3-(3-methyl-2-thienyl)benzyl]-7-methyl-1-(6-methylpyridin-2-yl)-1,8-diazaspiro[4.5]dec-3-en-2-one], the IC50 was in the range of 0.001 to 1 µM.
Turning to `CC[C@@H](C)Oc1cccc(CN2CC[C@]3(CCC(=O)N3c3cccc(F)c3)C[C@@H]2C)c1` [#216], the IC50 lay in the range of 1 to 10 µM.
As to `CC1CC2(C=CC(=O)N2c2cccc(F)c2)CCN1Cc1ccc2[nH]ccc2c1` (racemic) [Example 11, Racemic (5R,7S),(5S,7R)-1-(3-fluorophenyl)-8-(1H-indol-5-ylmethyl)-7-methyl-1,8-diazaspiro[4.5]dec-3-en-2-one], the IC50 lay in the range of 10 to 100 µM.
With `Cc1ccccc1-c1cc(CN2CC[C@]3(C=CC(=O)N3c3cccc(F)c3)C[C@@H]2C)ccc1O` [#202] the figure was 0.001 to 1 µM; with `CCOc1cccc(CN2CCC3(C=CC(=O)N3c3cccc(F)c3)CC2C)c1` (racemic) [Example 1, Racemic (5R,7S),(5S,7R)-8-(3-ethoxybenzyl)-1-(3-fluorophenyl)-7-methyl-1,8-diazaspiro[4.5]dec-3-en-2-one], 10 to 100 µM; with `Cc1ccc(Oc2cccc(CN3CCC4(CCC(=O)N4c4cccc(F)c4)CC3C)c2)cc1` (racemic) [Example 34, Racemic (5R,7S),(5S,7R)-1-(3-fluorophenyl)-7-methyl-8-[3-(4-methylphenoxy)benzyl]-1,8-diazaspiro[4.5]decan-2-one], 10 to 100 µM.
As for `CC1CC2(C=CC(=O)N2c2cccc(F)c2)CCN1Cc1nc(-c2ccc(C#N)cc2)cs1` (racemic) [Example 26, Racemic 4-(2-{[(5R,7S),(5S,7R)-1-(3-fluorophenyl)-7-methyl-2-oxo-1,8-diazaspiro[4.5]dec-3-en-8-yl]methyl}-1,3-thiazol-4-yl)benzonitrile], the IC50 lay within 10 to 100 µM.
With `COc1cc(CN2CCC3(CCC(=O)N3c3cccc(F)c3)CC2C)ccc1O` (racemic) [Example 42, Racemic (5R,7S),(5S,7R)-1-(3-fluorophenyl)-8-(4-hydroxy-3-methoxybenzyl)-7-methyl-1,8-diazaspiro[4.5]decan-2-one] the figure was 10 to 100 µM.
Compound `CC1CC2(C=CC(=O)N2c2cccc(F)c2)CCN1Cc1c[nH]c2ccc(OCc3ccccc3)cc12` (racemic) [Example 62, Racemic (5R,7S),(5S,7R)-8-{[5-(benzyloxy)-1H-indol-3-yl]methyl}-1-(3-fluorophenyl)-7-methyl-1,8-diazaspiro[4.5]dec-3-en-2-one] yielded an IC50 of 10 to 100 µM.
Under `CC1CC2(C=CC(=O)N2c2cccc(F)c2)CCN1Cc1c[nH]c2cc(F)ccc12` (racemic) [Example 63, Racemic (5R,7S),(5S,7R)-8-[(6-fluoro-1H-indol-3-yl)methyl]-1-(3-fluorophenyl)-7-methyl-1,8-diazaspiro[4.5]dec-3-en-2-one] stands 10 to 100 µM; under `C[C@H]1C[C@@]2(C=CC(=O)N2c2cccc(F)c2)CCN1Cc1ncoc1-c1ccccc1` [#207], 10 to 100 µM; under `CC(C)C(=O)c1cc(CN2CC[C@]3(C=CC(=O)N3c3cccc(F)c3)C[C@@H]2C)ccc1O` [#204], 1 to 10 µM.
With `CC1CC2(CCC(=O)N2c2cccc(F)c2)CCN1Cc1ccc2[nH]ccc2c1` (racemic) [Example 40, Racemic (5R,7S),(5S,7R)-1-(3-fluorophenyl)-8-(1H-indol-5-ylmethyl)-7-methyl-1,8-diazaspiro[4.5]decan-2-one] the figure was 100 to 300 µM; with `CC1CC2(CCC(=O)N2c2cccc(F)c2)CCN1Cc1cccc(OC2CCCC2)c1` (racemic) [Example 50, Racemic (5R,7S),(5S,7R)-8-[3-(cyclopentyloxy)benzyl]-1-(3-fluorophenyl)-7-methyl-1,8-diazaspiro[4.5]decan-2-one], 100 to 300 µM.
With `CC(C)Oc1cccc(CN2CC[C@]3(CC(C)C(=O)N3c3cccc(F)c3)C[C@@H]2C)c1` (stereo partly drawn) [Example @96, (5R,7S)˜1˜(3˜Fluorophenyl)˜8˜(3˜isopropoxybenzyl)˜3,7˜dimethyl˜1,8˜diazaspiro[4.5]decan˜2˜one, hydrochloride salt] the figure was 10 to 100 µM.
For the compound `CC(C)Oc1cc(CN2CC[C@]3(C=CC(=O)N3c3cccc(F)c3)C[C@@H]2C)ccc1O` [Example 87, (5R7S)-1-(3-fluorophenyl)-8-(4-hydroxy-3-isopropoxybenzyl)-7-methyl-1,8-diazaspiro[4,5]dec-3-en-2-one hydrochloride], the IC50 was in the range of 0.001 to 1 µM.
With `Cc1ccc2c(CN3CCC4(C=CC(=O)N4c4cccc(F)c4)CC3C)c[nH]c2c1` (racemic) [Example 66, Racemic (5R,7S),(5S,7R)-1-(3-fluorophenyl)-7-methyl-8-[(6-methyl-1H-indol-3-yl)methyl]-1,8-diazaspiro[4.5]dec-3-en-2-one] the figure was 10 to 100 µM; with `CC(C)Cc1ocnc1CN1CC[C@]2(CCC(=O)N2c2cccc(F)c2)C[C@@H]1C` [#213], 10 to 100 µM.
`CC1CC2(C=CC(=O)N2c2cccc(F)c2)CCN1Cc1cccc(C#N)c1` (racemic) [Example 7, Racemic 3-{[(5R,7S),(5S,7R)-1-(3-fluorophenyl)-7-methyl-2-oxo-1,8-diazaspiro[4.5]dec-3-en-8-yl]methyl}benzonitrile] showed an IC50 of 10 to 100 µM.
With `CC1CC2(C=CC(=O)N2c2cccc(F)c2)CCN1Cc1ccc(OC(F)F)c(OC2CC2)c1` (racemic) [Example 80, Racemic (5R,7S),(5S,7R)-8-[3-(cyclopropyloxy)-4-(difluoromethoxy)benzyl]-1-(3-fluorophenyl)-7-methyl-1,8-diazaspiro[4.5]dec-3-en-2-one] the figure was 100 to 300 µM; with `Cc1cc(N2C(=O)C=C[C@]23CCN(Cc2cccc(OC(C)C)c2)[C@@H](C)C3)ccn1` [#110], 10 to 100 µM; with `CC1CC2(C=CC(=O)N2c2cccc(F)c2)CCN1Cc1cccc(OCc2nc(C3CC3)no2)c1` (racemic) [Example 68, Racemic (5R,7S),(5S,7R)-8-{3-[(3-cyclopropyl-1,2,4-oxadiazol-5-yl)methoxy]benzyl}-1-(3-fluorophenyl)-7-methyl-1,8-diazaspiro[4.5]dec-3-en-2-one], 10 to 100 µM.
`CC1CC2(C=CC(=O)N2c2cccc(F)c2)CCN1Cc1nc(-c2cccc(C#N)c2)cs1` (racemic) [Example 27, Racemic 3-(2-{[(5R,7S),(5S,7R)-1-(3-fluorophenyl)-7-methyl-2-oxo-1,8-diazaspiro[4.5]dec-3-en-8-yl]methyl}-1,3-thiazol-4-yl)benzonitrite] came in with an IC50 of 10 to 100 µM.
With `CC(C)Oc1cccc(CN2CC[C@]3(CC(O)C(=O)N3c3cccc(F)c3)C[C@@H]2C)c1` (mixture of isomers) [Example 92, Racemic (3R/S,5R,7S)(3R/S,5S,7R)˜1˜(3˜fluorophenyl)˜3˜hydroxy˜8˜(3˜isopropoxybenzyl)-7-methyl-1,8-diazaspiro[4.5]decan-2-one, hydrochloride salt], the IC50 lay in the range of 10 to 100 µM.
With `C[C@H]1C[C@@]2(C=CC(=O)N2c2cccc(F)c2)CCN1Cc1scnc1CC1CCC1` [#211] the figure was 0.001 to 1 µM; with `CC1CC2(C=CC(=O)N2c2cccc(F)c2)CCN1Cc1cccc(Oc2ccc(Cl)cc2)c1` (racemic) [Example 29, Racemic (5R,7S),(5S,7R)-8-[3-(4-chlorophenoxy)benzyl]-1-(3-fluorophenyl)-7-methyl-1,8-diazaspiro[4.5]dec-3-en-2-one], 10 to 100 µM.
With `CCCCOc1cccc(CN2CCC3(CCC(=O)N3c3cccc(F)c3)CC2C)c1` (racemic) [Example 47, Racemic (5R,7S),(5S,7R)-8-(3-butoxybenzyl)-1-(3-fluorophenyl)-7-methyl-1,8-diazaspiro[4.5]decan-2-one] the figure was 100 to 300 µM.
